In this experiment the target is E. coli cysteinyl-tRNA synthetase (EcCysRS) (Escherichia coli, UniProt P21888). As to the kind of experiment: aminoacylation of E. coli tRNA-Cys with […]-Cys by purified CysRS. The class given is biochemical.
E. coli cysteinyl-tRNA synthetase (EcCysRS), sequence (P21888 whole entry): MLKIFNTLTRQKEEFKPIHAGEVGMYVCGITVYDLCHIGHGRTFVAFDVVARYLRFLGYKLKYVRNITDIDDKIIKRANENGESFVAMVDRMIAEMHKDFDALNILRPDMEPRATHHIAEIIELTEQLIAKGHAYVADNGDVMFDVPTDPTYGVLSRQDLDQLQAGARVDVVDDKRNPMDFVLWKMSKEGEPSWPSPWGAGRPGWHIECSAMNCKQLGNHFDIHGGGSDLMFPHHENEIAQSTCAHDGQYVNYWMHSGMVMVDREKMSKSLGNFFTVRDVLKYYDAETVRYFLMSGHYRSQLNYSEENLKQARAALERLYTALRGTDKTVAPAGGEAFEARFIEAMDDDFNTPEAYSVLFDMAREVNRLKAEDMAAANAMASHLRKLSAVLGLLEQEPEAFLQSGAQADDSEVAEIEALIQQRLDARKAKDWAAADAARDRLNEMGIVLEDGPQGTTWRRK

Compound `Nc1ncnc2c1ncn2[C@@H]1O[C@H](COS(=O)(=O)NC(=O)[C@@H](N)CS)[C@@H](O)[C@H]1O` [Cys-AMS] registered an IC50 of less than 600 nM.

Values taken from article PMC5511029 (Journal of molecular biology, 2017).
